According to article PMC10997755, “Discovery of a small-molecule inhibitor that traps Polθ on DNA and synergizes with PARP inhibitors” (Nature Communications, 2024):
Several values for one entry are separate records, joined by “and”; a condition that tells them apart may be missing. Identical values can stand only once. Entries after “also recorded” stand apart in the source; their conditions may differ.

Tests used:
Type in all cases: biochemical
EcoRI = biological target: T1, EcoRI (Escherichia coli, UniProt P00642); experiment: EcoRI cleavage control in the absence of Polθ-pol; conditions: for cleavage %: EcoRI; for % cleavage: compound 10 µM
T1 construct: purchased New England Biolabs
T1 sequence (P00642 2-277 limits assumed): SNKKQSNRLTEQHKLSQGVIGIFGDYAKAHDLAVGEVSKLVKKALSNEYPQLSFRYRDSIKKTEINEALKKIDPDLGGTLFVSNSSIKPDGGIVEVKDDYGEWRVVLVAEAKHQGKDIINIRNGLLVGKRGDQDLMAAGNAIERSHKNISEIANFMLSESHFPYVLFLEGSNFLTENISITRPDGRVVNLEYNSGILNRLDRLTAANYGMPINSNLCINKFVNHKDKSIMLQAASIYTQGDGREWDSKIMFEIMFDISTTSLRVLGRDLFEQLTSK
Method: (§1) EcoRI and KpnI endonucleases assay: 25 nM 5’-^32P radiolabeled primer-template DNA Sc15-EcoRI (5’-^32P LM3-EcoRI/LM4-EcoRI) or Sc19-KpnI (5’-^32P LM11-Kpn/LM12-Kpn) in reaction buffer (25 mM Tris-HCl pH 7.5, 10 mM MgCl2, 10% glycerol, 0.1 mg/mL BSA, 0,01% igepal, 1 mM DTT) were incubated in the presence or in the absence of 50 nM Polθ-pol, 100 μM ddCTP, and 10 μM inhibitors, as indicated, for 5 min at room temperature. Next, 0.08 U/μL EcoRI or KpnI together with 500 nM “trapping” DNA Sc14 (RP559/RP702) were added and incubated for further 0–40 min at 30 °C as indicated. 10 nM PolθΔcen and FL-Polθ and 25 nM Sc15-EcoRI and Sc19-Kpn were probed with 0.04 U/μL EcoRI or KpnI (both from New England Biolabs) using the same conditions. Reactions were stopped by addition of formamide loading buffer with 50 mM EDTA, resolved in denaturing 20% urea PAAG and analyzed using Typhoon PhosphorImager (GE Amersham). Quantification was done in ImageQuant TL software. All quantified experiments were performed in triplicates and plotted as mean with ± s.d using GraphPad Prism 9 software.

KpnI = biological target: T2, KpnI (Klebsiella pneumoniae, UniProt P25237); experiment: KpnI cleavage control in the absence of Polθ-pol; conditions: for cleavage %: KpnI; for % cleavage: compound 10 µM
T2 construct: purchased New England Biolabs
T2 sequence (P25237 1-218): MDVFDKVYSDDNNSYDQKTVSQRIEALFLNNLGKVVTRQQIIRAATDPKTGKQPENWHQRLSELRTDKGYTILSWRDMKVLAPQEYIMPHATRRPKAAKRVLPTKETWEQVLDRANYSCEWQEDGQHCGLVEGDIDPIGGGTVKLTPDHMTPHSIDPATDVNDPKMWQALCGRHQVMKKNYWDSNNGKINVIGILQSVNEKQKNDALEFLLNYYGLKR
Method: as §1

Polθ-pol:DNA/DNA complex [1] = biological target: T3, Polθ-pol:DNA/DNA complex (Homo sapiens, UniProt O75417); experiment: KpnI endonuclease protection assay; conditions: for i (%), normalized to 100%, ave(%) / i (%), replicates: 14 nt i; for i+1 (%) normalized to 100%, ave(%) / i+1 (%), replicates: 15 nt i+1
T3 construct: purified recombinant human Polθ-pol (comprising amino acid residues 1792–2590); made in house
T3 sequence (O75417 1792-2590): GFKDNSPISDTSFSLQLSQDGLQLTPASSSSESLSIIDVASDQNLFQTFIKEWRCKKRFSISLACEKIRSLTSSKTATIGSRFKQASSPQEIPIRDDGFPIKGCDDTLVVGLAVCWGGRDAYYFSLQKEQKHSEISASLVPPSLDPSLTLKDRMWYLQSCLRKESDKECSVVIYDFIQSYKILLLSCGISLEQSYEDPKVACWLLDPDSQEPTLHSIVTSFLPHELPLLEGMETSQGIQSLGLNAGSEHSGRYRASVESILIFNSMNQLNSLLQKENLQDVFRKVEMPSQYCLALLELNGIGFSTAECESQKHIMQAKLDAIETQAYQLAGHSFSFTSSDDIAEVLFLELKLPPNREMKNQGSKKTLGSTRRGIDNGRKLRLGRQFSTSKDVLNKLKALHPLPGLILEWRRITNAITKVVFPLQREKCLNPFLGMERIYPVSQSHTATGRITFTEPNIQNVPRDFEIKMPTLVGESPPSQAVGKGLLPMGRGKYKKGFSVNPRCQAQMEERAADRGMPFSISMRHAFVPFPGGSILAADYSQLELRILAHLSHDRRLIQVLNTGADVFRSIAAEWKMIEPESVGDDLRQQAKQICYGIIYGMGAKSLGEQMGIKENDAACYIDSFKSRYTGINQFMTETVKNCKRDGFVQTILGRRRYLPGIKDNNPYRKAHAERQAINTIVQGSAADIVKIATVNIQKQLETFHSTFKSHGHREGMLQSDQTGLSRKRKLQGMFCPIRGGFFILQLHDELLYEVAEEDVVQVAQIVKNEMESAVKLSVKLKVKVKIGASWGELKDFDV
Method: as §1

Polθ-pol:DNA/DNA complex [2] = biological target: T3, Polθ-pol:DNA/DNA complex; experiment: EcoRI endonuclease protection assay; conditions: for EcoRI cleavage %, ave / EcoRI cleavage %, replicates #1-#3: Eco+pol+ddC+RTx compound; for i (%) (14 nt), replicates #1-#3 / i (%), normalized to 100%, ave(%) / i+1 (%) (15 nt), replicates #1-#3 / i+1 (%) normalized to 100%, ave(%): pol+ddC+compound;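 as to i+1 (%) (15 nt), replicates #1-#3: i+1 is one-nucleotide extended DNA within post-catalytic complexes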
Method: as §1

CN(C(=O)Oc1c(N2CCN(CCO)C2=O)cc(C(F)(F)F)cc1C(F)(F)F)c1ccc(F)cc1 [RTx-161]
cleavage % (EcoRI; 3 min): 26.2%
cleavage % (EcoRI; 6 min): 44.3%
inhibition of EcoRI activity (EcoRI; absence of Polθ-pol): resistant to inhibition; also recorded: do not inhibit
% cleavage (EcoRI; cleavage 3 min): 26%
% cleavage (EcoRI; cleavage 6 min): 44%
cleavage % (KpnI; 3 min): 20.2%
cleavage % (KpnI; 6 min): 33.3%
inhibition of KpnI activity (KpnI; absence of Polθ-pol): resistant to inhibition
% cleavage (KpnI; cleavage 3 min): 20%
% cleavage (KpnI; cleavage 6 min): 33%
KpnI cleavage %, ave (Polθ-pol:DNA/DNA complex [1]; Kpn+pol+ddC+RTx161, 2.5min): 0.667%
KpnI cleavage %, replicates (Polθ-pol:DNA/DNA complex [1]; Kpn+pol+ddC+RTx161, 2.5min): 1.0% (2×) and 0.0%
KpnI cleavage %, ave (Polθ-pol:DNA/DNA complex [1]; Kpn+pol+ddC+RTx161, 5min): 0.667%
KpnI cleavage %, replicates (Polθ-pol:DNA/DNA complex [1]; Kpn+pol+ddC+RTx161, 5min): 1.0% (2×) and 0.0%
KpnI cleavage %, ave (Polθ-pol:DNA/DNA complex [1]; Kpn+pol+ddC+RTx161, 10min): 1.7%
KpnI cleavage %, replicates (Polθ-pol:DNA/DNA complex [1]; Kpn+pol+ddC+RTx161, 10min): 2.0% (2×) and 1.0%
trapping of post-catalytic complexes, different sequence context (Polθ-pol:DNA/DNA complex [1]; KpnI): identical trapping
i (%), normalized to 100%, ave(%) (Polθ-pol:DNA/DNA complex [1]; KpnI, pol+ddC+161, 2.5 min): 100.0%
i (%), replicates (Polθ-pol:DNA/DNA complex [1]; KpnI, pol+ddC+161, 2.5 min): 37.5% and 36.0% and 24.6%
i+1 (%) normalized to 100%, ave(%) (Polθ-pol:DNA/DNA complex [1]; KpnI, pol+ddC+161, 2.5 min): 100.0%
i+1 (%), replicates (Polθ-pol:DNA/DNA complex [1]; KpnI, pol+ddC+161, 2.5 min): 53.1% and 51.8% and 59.1%
i (%), normalized to 100%, ave(%) (Polθ-pol:DNA/DNA complex [1]; KpnI, pol+ddC+161, 5 min): 87.7%
i (%), replicates (Polθ-pol:DNA/DNA complex [1]; KpnI, pol+ddC+161, 5 min): 33.9% and 31.6% and 20.7%
i+1 (%) normalized to 100%, ave(%) (Polθ-pol:DNA/DNA complex [1]; KpnI, pol+ddC+161, 5 min): 105.6%
i+1 (%), replicates (Polθ-pol:DNA/DNA complex [1]; KpnI, pol+ddC+161, 5 min): 54.8% and 55.9% and 62.4%
i (%), normalized to 100%, ave(%) (Polθ-pol:DNA/DNA complex [1]; KpnI, pol+ddC+161, 10 min): 67.8%
i (%), replicates (Polθ-pol:DNA/DNA complex [1]; KpnI, pol+ddC+161, 10 min): 26.7% and 24.4% and 15.5%
i+1 (%) normalized to 100%, ave(%) (Polθ-pol:DNA/DNA complex [1]; KpnI, pol+ddC+161, 10 min): 114.7%
i+1 (%), replicates (Polθ-pol:DNA/DNA complex [1]; KpnI, pol+ddC+161, 10 min): 61.3% and 62.1% and 64.7%
time Polθ-pol is trapped on DNA/DNA (EcoRI cleavage suppressed) (Polθ-pol:DNA/DNA complex [2]; 10 μM inhibitor, ddCTP): > 10 min
EcoRI cleavage %, ave (Polθ-pol:DNA/DNA complex [2]; 2.5min): 4.0%
EcoRI cleavage %, replicates #1-#3 (Polθ-pol:DNA/DNA complex [2]; 2.5min): 5.8% and 3.2% and 4.2%
EcoRI cleavage %, ave (Polθ-pol:DNA/DNA complex [2]; 5min): 6.0%
EcoRI cleavage %, replicates #1-#3 (Polθ-pol:DNA/DNA complex [2]; 5min): 8.0% and 4.6% and 4.9%
EcoRI cleavage %, replicates #1-#3 (Polθ-pol:DNA/DNA complex [2]; 10min): 9.0% and 6.1% and 7.3%
i (%) (14 nt), replicates #1-#3 (Polθ-pol:DNA/DNA complex [2]; 2.5min): 25.2% and 24.9% and 24.6%
i (%), normalized to 100%, ave(%) (Polθ-pol:DNA/DNA complex [2]; 2.5min): 100.0%
i+1 (%) (15 nt), replicates #1-#3 (Polθ-pol:DNA/DNA complex [2]; 2.5min): 53.9% and 59.3% and 59.1%
i+1 (%) normalized to 100%, ave(%) (Polθ-pol:DNA/DNA complex [2]; 2.5min): 100.0%
i (%) (14 nt), replicates #1-#3 (Polθ-pol:DNA/DNA complex [2]; 5min): 21.5% and 21.2% and 20.7%
i (%), normalized to 100%, ave(%) (Polθ-pol:DNA/DNA complex [2]; 5min): 85.0%
i+1 (%) (15 nt), replicates #1-#3 (Polθ-pol:DNA/DNA complex [2]; 5min): 55.1% and 61.3% and 62.4%
i+1 (%) normalized to 100%, ave(%) (Polθ-pol:DNA/DNA complex [2]; 5min): 103.8%
i (%) (14 nt), replicates #1-#3 (Polθ-pol:DNA/DNA complex [2]; 10min): 11.4% and 15.0% and 15.5%
i (%), normalized to 100%, ave(%) (Polθ-pol:DNA/DNA complex [2]; 10min): 56.1%
i+1 (%) (15 nt), replicates #1-#3 (Polθ-pol:DNA/DNA complex [2]; 10min): 66.5% and 64.8% and 64.7%
i+1 (%) normalized to 100%, ave(%) (Polθ-pol:DNA/DNA complex [2]; 10min): 113.8%
